Results taken from patent US20110177061A1, “METHODS OF TREATING AND PREVENTING NEUROLOGICAL DISORDERS USING DOCOSAHEXAENOIC ACID” (MARTEK BIOSCIENCES CORPORATION, priority 2009, published 2011).
Entries after “also recorded” stand apart in the source; their conditions may differ.

Assays:
[1] = system: human patients with mild to moderate Alzheimer's disease; assay: ADAS-cog (co-primary outcome) in clinical trial; assay type: in vivo
Method: (§1) A clinical trial was carried out to determine whether chronic DHA supplementation slows the progression of cognitive and functional decline in human patients with mild to moderate Alzheimer's disease. In the study, 402 individuals with mild to moderate Alzheimer's disease participated for 18 months at sites throughout the United States. Participants were randomized so that 60% of participants received approximately 2 grams of DHA (divided into 4 capsules—2 capsules taken twice a day), while 40% of the participants received an identical placebo of corn/soy oil. The DHA soft-gel capsules used in the study were provided by Martek Biosciences Corporation, and contained a microbial oil of 55% DHA (as a percentage of total fatty acids) in triglyceride form, in addition to tocopherol and orange flavoring. The capsules contained no detectable EPA. The placebo was a 50/50 mixture of corn/soy oil and also included mixed tocopherols, ascorbyl, palmitate, orange flavoring, and orange masking agent. Following the eligibility assessment, 238 of the 402 patients were randomly assigned to the DHA treatment group and 164 patients to the placebo group. Of the 238 patient DHA treatment group, 171 patients completed the full 18 month course of treatment. Of the 164 placebo group, 124 patients completed the full 18 month course of treatment. Various parameters were measured at baseline and at every 6 months through the conclusion of the trial at 18 months.

[2] = system: human patients with mild to moderate Alzheimer's disease; assay: CDR-SOB (co-primary outcome) in clinical trial; assay type: in vivo
Method: as §1

[3] = Plasma phospholipid DHA levels in clinical trial; assay type: in vivo, human; settings: DHA treatment group
Source text: (§2) In the study, 402 individuals with mild to moderate Alzheimer's disease participated for 18 months at sites throughout the United States. Participants were randomized so that 60% of participants received approximately 2 grams of DHA (divided into 4 capsules—2 capsules taken twice a day), while 40% of the participants received an identical placebo of corn/soy oil. The DHA soft-gel capsules used in the study were provided by Martek Biosciences Corporation, and contained a microbial oil of 55% DHA (as a percentage of total fatty acids) in triglyceride form, in addition to tocopherol and orange flavoring. The capsules contained no detectable EPA. The placebo was a 50/50 mixture of corn/soy oil and also included mixed tocopherols, ascorbyl, palmitate, orange flavoring, and orange masking agent.
(§3) Various parameters were measured at baseline and at every 6 months through the conclusion of the trial at 18 months.
(§4) Plasma phospholipid fatty acid levels were determined using established methods, with modifications for cerebrospinal fluid analysis (Arterburn et al., 2007, Lipids 42(11):1011-1024; Arterburn et al., 2008, J Am Diet Assoc. 108(7):1204-1209). The fatty acid profiles were expressed as a percent of the total μg of fatty acid (weight percent).

[4] = Cerebrospinal fluid (CSF) DHA levels in CSF sub-study; assay type: in vivo, human
Method: All subjects without contraindication to cerebrospinal fluid (CSF) exam (e.g., anticoagulation) were invited to participate in the CSF study. In these subjects, lumbar puncture was performed in the morning after an overnight fast.
as §4

[5] = system: human patients with mild to moderate Alzheimer's disease; assay: MMSE (secondary outcome) in clinical trial; assay type: in vivo
Method: as §1

[6] = system: human patients with mild to moderate Alzheimer's disease; assay: Pre-planned secondary analysis of DHA treatment and ApoE4 allelic status, all outcome measures; assay type: in vivo
Method: (§5) A clinical trial was carried out to determine whether chronic DHA supplementation slows the progression of cognitive and functional decline in human patients with mild to moderate Alzheimer's disease.
as §2
A pre-planned secondary analysis was also carried out examining the effect of DHA treatment and ApoE4 (E4) allelic status. […] This effect was also evident on the MMSE (−3.36±4.78 in DHA compared to 5.12±5.08 in placebo; p=0.034), but was not present on the CDR-SOB, the ADCS-ADL, or the NPI.

[7] = system: human patients with mild to moderate Alzheimer's disease; assay: Vital signs and lab results in clinical trial; assay type: in vivo; settings: 18 month trial
Method: as §5, §2, §3

[8] = system: human patients with mild to moderate Alzheimer's disease; assay: MRI sub-study, brain volume change; assay type: in vivo
Method: as §2, with “A clinical trial was carried out to determine whether chronic DHA supplementation slows the progression of cognitive and functional decline in human patients with mild to moderate Alzheimer's disease. In” for “In”

[9] = system: human patients with mild to moderate Alzheimer's disease; assay: NPI (secondary outcome) in clinical trial; assay type: in vivo
Method: as §1

[10] = system: human patients with mild to moderate Alzheimer's disease; assay: ADCS-ADL (secondary outcome) in clinical trial; assay type: in vivo
Method: as §1

[11] = all subjects, LME model, GEE or ANCOVA

## CC/C=C\C/C=C\C/C=C\C/C=C\C/C=C\C/C=C\CCC(=O)O [DHA, (all-Z)-4,7,10,13,16,19-docosahexaenoic acid]
[1]; ApoE4-negative, 61 DHA subjects, placebo 10.11±10.58 (48 subjects), p=0.028
  ADAS-cog points change over 18 months, E4-negative group: 6.23±8.58 points
[1]; Wilcoxan rank p=0.027, FIG. 1
  Difference DHA vs placebo in 12 month ADAS scores: modest difference
[1]; all subjects, LME model, 18 months
  Difference DHA vs placebo on ADAS-cog (rate of change): did not differ; also recorded: no significant difference
[1]; all subjects, unadjusted, placebo 7.98±9.84, p=0.41
  ADAS-cog points change over 18 months: 8.27±8.9 points
[1]; post hoc analysis, FIGS. 7A and 7B
  ADAS-cog decline in ApoE4 negative subjects with MMSE >21 compared to MMSE ≦21: significantly less decline; also recorded: more pronounced
[1]; pre-specified sub-group analysis, FIGS. 6A and 6B
  Difference in the effect of DHA administration on ADAS-cog between ApoE4-positive and ApoE4-negative subjects: statistically significant difference
[2]; ApoE4-negative subjects
  DHA treatment effect on CDR-SOB in the E4-negative group: not present
[2]; all subjects, LME model, GEE or ANCOVA, ITT or per protocol
  Difference DHA vs placebo on CDR-SOB (rate of change): also did not differ; also recorded: no significant difference
[2]; all subjects, placebo 2.87±2.93, p=0.68
  CDR-SOB points change over 18 months: 2.93±2.83 points
[3]; approx. 2 g DHA/day oral, 6 months
  Plasma phospholipid DHA: 9.1 wt %
[3]; approx. 2 g DHA/day oral, 12 months
  Plasma phospholipid DHA: 10.23 wt %
[3]; approx. 2 g DHA/day oral, 18 months, p<0.001
  Plasma phospholipid DHA: 9.77 wt %
[3]; baseline (before treatment)
  Plasma phospholipid DHA: 3.18 wt %
[4]; DHA supplemented group n=29, 18 months, p<0.001
  CSF DHA: 3.45 wt %
[4]; DHA supplemented group n=29, baseline (before treatment)
  CSF DHA: 2.53 wt %
[5]; ApoE4-negative, placebo printed 5.12±5.08, p=0.034
  MMSE change, E4-negative group: −3.36±4.78
[5]; all subjects, ANCOVA, placebo −4.0±4.7, p=0.88
  MMSE points change from baseline to 18 months: −3.70±4.95 points
[5]; all subjects, after 18 months of treatment
  Difference DHA vs placebo on MMSE: no significant difference
[6]; ApoE4-negative subjects afflicted with AD
  Benefit in reducing decline in cognitive ability in AD subjects negative for the ApoE4 allele: significant benefit
[6]; ApoE4-positive subjects
  DHA treatment effect on any outcome measure in the E4-positive group: no DHA treatment effect
[7]
  Cholesterol level change: modest increase
  Diastolic blood pressure change: modest decline
  HDL level change: no change
  Heart rate change: modest decline
  LDL level change: modest increase
  Systolic blood pressure change: no change
  Triglycerides change: modest decline
  Weight change: no change
[8]; MRI sub-study n=53 DHA, placebo 8.1±5.9, p=0.55
  Absolute volume change over 18 months, total ventricular volume: 9.1±5.0 cm^3
[8]; MRI sub-study n=53 DHA, placebo 24.0±14.6, p=0.79
  Absolute volume change over 18 months, total brain: 24.7±12.3 cm^3
[8]; MRI sub-study n=53 DHA, placebo 148±109, p=0.29
  Absolute volume change over 18 months, right hippocampus: 176±128 mm^3
[8]; MRI sub-study n=53 DHA, placebo 175±135, p=0.17
  Absolute volume change over 18 months, left hippocampus: 141±104 mm^3
[8]; MRI sub-study, ANCOVA, total brain, hippocampus, total ventricular volume
  Effect of DHA treatment on absolute amount of brain volume change over 18 months: no evidence of an effect
[8]; MRI sub-study, n=21 DHA, n=17 placebo
  Effect of DHA on rates of brain atrophy among ApoE4 negative subjects: Neither was an effect of DHA seen
[9]; ApoE4-negative subjects
  DHA treatment effect on NPI in the E4-negative group: not present
[9]; all subjects, LME analysis, placebo 5.09±15.08, p=0.11
  NPI points change over 18 months: 2.93±13.62 points
[9]; [11]
  Difference DHA vs placebo on NPI: no significant difference
[10]; ApoE4-negative subjects
  DHA treatment effect on ADCS-ADL in the E4-negative group: not present
[10]; all subjects, LME analysis, placebo 10.43±11.74, p=0.38
  ADCS-ADL points change over 18 months (rate of decline): 11.51±13.23 points
[10]; [11]
  Difference DHA vs placebo on ADCS-ADL: no significant difference
